Biological target: Transcription factor p65 (Homo sapiens) (UniProt Q04206)
Test: Inhibition of NF-kappaB DNA binding by EMSA

Chain of Transcription factor p65 (Homo sapiens) (Q04206 whole entry): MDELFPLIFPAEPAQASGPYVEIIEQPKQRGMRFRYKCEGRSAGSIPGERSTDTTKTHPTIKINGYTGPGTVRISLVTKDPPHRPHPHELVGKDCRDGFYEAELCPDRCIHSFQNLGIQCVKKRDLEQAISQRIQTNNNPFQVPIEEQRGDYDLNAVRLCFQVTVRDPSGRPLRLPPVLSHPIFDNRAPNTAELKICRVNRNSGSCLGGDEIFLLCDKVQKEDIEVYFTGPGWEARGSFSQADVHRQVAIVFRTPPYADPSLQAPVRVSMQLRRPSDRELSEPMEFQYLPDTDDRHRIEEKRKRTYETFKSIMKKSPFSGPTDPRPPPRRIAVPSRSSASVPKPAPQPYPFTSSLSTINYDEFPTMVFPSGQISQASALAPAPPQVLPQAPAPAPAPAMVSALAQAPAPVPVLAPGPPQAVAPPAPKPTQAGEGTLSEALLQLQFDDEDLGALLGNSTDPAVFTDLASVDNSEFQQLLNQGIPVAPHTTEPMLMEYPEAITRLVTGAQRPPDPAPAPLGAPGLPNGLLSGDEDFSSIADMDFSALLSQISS

| SMILES | IC100 |
| --- | --- |
| CC[C@@H](C)[C@@]1(O)O[C@H]2C[C@@]3(C)OC(=CC3=O)/C(COC(C)=O)=C\[C@H]3OC(=O)[C@@]1(C)C23 (stereo not given in full) | 5 µM |
| C=C1C(=O)O[C@@H]2/C=C(\COC(=O)C(C)C)CC/C=C(\CO)C(=O)C[C@@H]12 | 12.5 µM |
| C=C1C(=O)O[C@]23C[C@H]1CCC(COC(C)=O)=C2C(=O)C=C3C | 100 µM |
| C=C1C(=O)O[C@@H]2[C@H]3C(C)=CC[C@@H](O)[C@]3(C)CC[C@@H]12 | 100 µM |
| C=C(C)C(=O)O[C@H]1C[C@@]2(C)OC(=CC2=O)C(=C)[C@@H](Cl)[C@H]2OC(=O)C(=C)[C@@H]21 | 5 µM |
| C=C1C(=O)O[C@@H]2C[C@H](C)C3=C(C[C@H]12)[C@@H](C)CC3=O | 20 µM |
| C=C1C(=O)O[C@@H]2/C=C(\C)CC/C=C(/C)CC[C@@]12O | 10 µM |
| C=C1C(=O)O[C@H]2C/C(CO)=C/CC/C(COC(=O)C(C)CO)=C/C[C@H]12 (stereo not given in full) | 100 µM |
| C=C(C)C(=O)O[C@H]1[C@@H]2[C@H](C)C(=O)O[C@@H]2C[C@@H](C)[C@@H]2C=CC(=O)[C@]21C | 100 µM |
| C=C1[C@@H]2[C@H]3OC(=O)C(=C)[C@@H]3CCC(=C)[C@@H]2C[C@@H]1OC(=O)C=C(C)C | 200 µM |
| C=C1C(=O)O[C@H]2/C=C(\C)CC/C=C(/C)C(=O)[C@H](OC(=O)[C@@]3(C)O[C@H]3C)[C@@H]12 | 50 µM |
| C=C1C(=O)O[C@@H]2[C@H]3C(C)=CC[C@H]3[C@](C)(O)C[C@H](O)[C@@H]12 | 100 µM |
| C=C1C(=O)O[C@@H]2C[C@@H](C)[C@@H]3[C@@H](OC(C)=O)C[C@@H](O)[C@@]3(C)[C@@H](O)[C@H]12 | 200 µM |
| C=C1C(=O)O[C@H]2[C@H]1[C@H](OC(=O)/C(C)=C\C)C[C@@]1(C)OC(=CC1=O)C(=C)[C@@H]2O | 10 µM |
| C=C1C(=O)C[C@H]2C(=C)C(=O)O[C@@H]2/C=C(\COC(=O)C(C)C)CC[C@H]1OC | 25 µM |
| C=C1C(=O)O[C@@H]2C[C@@H](C)[C@@H]3C=CC(=O)[C@@]3(C)[C@H](OC(=O)C(C)CC)[C@H]12 (stereo not given in full) | 10 µM |
| C=C(C)C(=O)O[C@@H]1CC(C)=C2C(=O)C=C(C)[C@@H]2[C@H]2OC(=O)C(=C)[C@@H]21 | 10 µM |
| C=C1C(=O)O[C@@H]2C[C@H](C)C3=CC(=O)[C@H](C)[C@@H]3C[C@H]12 | 50 µM |
| C=C1C(=O)O[C@H]2/C=C(\C)CC/C=C(\C)[C@@H](OC(=O)/C(C)=C/C)[C@H](O)[C@@H]12 | 100 µM |
| C=C1C(=O)O[C@@H]2[C@H]1[C@@H](OC(=O)[C@]1(C)O[C@@H]1C)C(=O)[C@@]1(C)C=CC[C@@](C)(O)[C@H]21 | 10 µM |
| C=C1C(=O)O[C@@H]2/C=C(/CO)[C@@]3(O)CC[C@@](C)(C[C@@H](OC(=O)/C(C)=C\C)[C@@H]12)O3 | 20 µM |
| C=C(C)C(=O)O[C@H]1[C@H]2C(=C)C(=O)O[C@@H]2[C@@H](O)[C@@]2(CC/C=C(/C=O)[C@@H]1OC(C)=O)CO2 | 5 µM |
| C=C1C(=O)O[C@@H]2C[C@@]3(C)[C@H](OC(C)=O)CC[C@](O)(COC(=O)C(C)C)[C@@H]3C[C@H]12 | 100 µM |
| C=C1C(=O)O[C@@H]2C[C@@H](C)[C@@H]3[C@H](OCC)CC(=O)[C@@]3(C)[C@H](OC(C)=O)[C@H]12 | 50 µM |
| C=C1C(=O)C=C2[C@H]1C[C@@H]1C(=C)C(=O)O[C@H]1C[C@@H]2C | 5 µM |
| C=C(C)C(=O)O[C@@H]1C[C@]2(C)CC[C@@](OC)(O2)/C(C)=C\[C@H]2OC(=O)C(=C)[C@@H]21 | 200 µM |
| C=C1C(=O)O[C@@H]2[C@H]3C(C)=CC[C@H](O)[C@]3(C)CC[C@@H]12 | 300 µM |

| SMILES | IC100 |
| --- | --- |
| C=C1C(=O)O[C@@H]2/C=C(\C)CC/C=C(\C)[C@@H](OC(C)=O)C[C@@H]12 | 200 µM |
| CC(=O)O[C@H]1[C@@H]2[C@H](C)C(=O)O[C@@H]2C[C@@H](C)[C@@H]2C=CC(=O)[C@]21C | 200 µM |
| C=C1C(=O)O[C@H]2[C@H]1CCC(C)=C1C(=O)[C@H]3O[C@@]3(C)[C@@H]12 | 5 µM |
| C=C1C(=O)O[C@@H]2C[C@@]3(C)CC(=O)C(OC(C)=O)=C(C)C3C[C@H]12 (stereo not given in full) | 100 µM |
| C[C@H]1C(=O)O[C@H]2C/C(CO)=C/CC/C(CO)=C/C[C@@H]21 | 300 µM |
| C=C(C)C(=O)O[C@@H]1/C=C(\C=O)[C@H](OC)CCC(=C)[C@H](O)[C@H]2OC(=O)C(=C)[C@@H]21 | 10 µM |
| C=C1C(=O)O[C@H]2C[C@@H](C)[C@@H]3C=CC(=O)[C@@]3(C)[C@H](O)[C@H]12 | 20 µM |
| C=C1C(=O)O[C@@H]2C[C@@H](C)[C@@H]3C=CC(=O)[C@@]3(C)[C@@H](O)[C@H]12 | 10 µM |
| C=C1C(=O)O[C@H]2C/C(CO)=C/CC/C(COC(=O)C(C)(C)O)=C/C[C@H]12 | 50 µM |
| C=C1C(=O)O[C@@H]2C[C@@]3(C)[C@H](O)CC[C@](O)(COC(=O)C(C)C)[C@@H]3C[C@H]12 | 200 µM |
| C=C1C(=O)O[C@H]2/C=C(\C)CC/C=C(\C)[C@@H](OC(=O)[C@@]3(C)O[C@H]3C)[C@H](O)[C@@H]12 | 50 µM |
| C=C(C)C(=O)O[C@@H]1C[C@](C)(O)[C@@H]2C(=O)C=C(C)[C@@H]2[C@H]2OC(=O)C(=C)[C@@H]21 | 50 µM |
| C=C1C(=O)O[C@H]2CC(=C)[C@H](O)CC/C(C)=C/[C@@H](O)[C@H]12 | 50 µM |
| C=C(CO)C(=O)OC/C1=C\C[C@@H]2C(=C)C(=O)O[C@H]2C/C(COC(C)=O)=C/CC1 | 50 µM |
| C=C(C)C(=O)O[C@@H]1/C=C(/C=O)CCC[C@@]2(CO2)[C@H](O)[C@H]2OC(=O)C(=C)[C@@H]21 | 5 µM |
| C[C@@H]1C[C@H]2OC(=O)[C@@H](C)[C@H]2[C@H](O)[C@]2(C)C(=O)C=C[C@@H]12 | 200 µM |
| C=C1C(=O)O[C@H]2[C@H]1[C@@H](OC(=O)/C(C)=C/C)C/C(C)=C\[C@@]1(OC)C=C(C)[C@@H]2O1 | 10 µM |
| C=C(C)C(=O)O[C@@H]1/C=C(\C=O)CCC[C@@]2(CO2)[C@H](O)[C@H]2OC(=O)C(=C)[C@@H]21 | 5 µM |
| C=C[C@]1(C)CC[C@H]2C(=C)C(=O)O[C@@H]2[C@H]1C(=C)C | 100 µM |
| C=C1C(=O)C[C@H]2C(=C)C(=O)O[C@@H]2/C=C(\COC(=O)C(C)C)CC[C@@H]1OC | 25 µM |
| C=C1C(=O)O[C@@H]2/C=C(/C)[C@]3(O)O[C@](C)(C[C@@H](OC(=O)C(C)C)[C@@H]12)C(=O)[C@@H]3OC | 200 µM |
| C=C(C)C(=O)O[C@H]1[C@H]2C(=C)C(=O)O[C@@H]2[C@@H](O)C(=C)CC/C=C(/C=O)[C@@H]1OC | 50 µM |
| C=C1C(=O)O[C@@H]2/C=C(\COC(=O)C(C)C)CC/C=C(\CO)[C@H](O)C[C@@H]12 | 100 µM |
| C=C(C)C(=O)O[C@@H]1[C@@H]2C(=C)C(=O)O[C@@H]2C[C@@H](C)[C@@H]2C=CC(=O)[C@@]12C | 5 µM |
| C=C(C)C(=O)O[C@H]1C/C(C)=C\[C@@]2(OC)C=C(C)[C@H](O2)[C@H]2OC(=O)C(=C)[C@@H]21 | 10 µM |
| C=C1C(=O)O[C@@H]2C[C@@]3(C)[C@H](O)CC=C(COC(=O)C(C)C)[C@@H]3C[C@H]12 | 50 µM |
| C=C1C(=O)O[C@@H]2/C=C(/CO)[C@@]3(O)C[C@@H](O)[C@@](C)(C[C@@H](OC(=O)/C(C)=C\C)[C@@H]12)O3 | 20 µM |

| SMILES | IC100 |
| --- | --- |
| C=C(C)C(=O)O[C@@H]1C[C@@]2(C)OC(=CC2=O)/C(C)=C\[C@H]2OC(=O)C(=C)[C@@H]21 | 10 µM |
| C=C1C(=O)O[C@@H]2/C=C(/C)C3=CC(=O)[C@@](C)(C[C@@H](OC(=O)/C(C)=C\C)[C@@H]12)O3 | 5 µM |
| C=C1CCC=C(C)[C@@]2(O)[C@H](OC(=O)[C@]3(C)O[C@@H]3C)[C@@H]3[C@@H](OC(=O)[C@@H]3C)[C@H]12 | 200 µM |
| C=C1C(=O)O[C@@H]2C[C@@H](C)[C@@H]3CCC(=O)[C@@]3(C)C[C@H]12 | 50 µM |
| C=C(C)C(=O)O[C@H]1C[C@@]2(C)OC(=CC2=O)/C(CO)=C\[C@H]2OC(=O)C(=C)[C@H]12 | 20 µM |
| C=C(C)C(=O)O[C@H]1[C@H]2C(=C)C(=O)O[C@@H]2[C@@H]2O[C@]2(C)CC/C=C(/C=O)[C@@H]1O | 10 µM |
| C=C1C(=O)O[C@H]2C/C(CO)=C/CC/C(COC(=O)C(C)C(C)O)=C/C[C@H]12 (stereo not given in full) | 50 µM |
| C=C(C)C(=O)O[C@H]1[C@H]2C(=C)C(=O)O[C@@H]2/C=C(\C)CC/C=C(/C=O)[C@@H]1O | 10 µM |
| C=C1C(=O)O[C@H]2[C@H]1[C@H](OC(=O)[C@@]1(C)O[C@H]1C)[C@@H](OC(C)=O)/C(C(=O)OC)=C\CC[C@@]1(C)O[C@H]21 | 10 µM |
| C=C(C)C(=O)O[C@H]1/C(C=O)=C\CC/C(C)=C/[C@H]2OC(=O)C(=C)[C@@H]2[C@@H]1O | 5 µM |
| C=C(C)C(=O)O[C@@H]1/C=C(\C=O)CCCC(=C)[C@H](O)[C@H]2OC(=O)C(=C)[C@@H]21 | 10 µM |
| C=C1C(=O)O[C@H]2C/C(CO)=C/CC/C(COC(=O)C3(C)CO3)=C/C[C@H]12 (stereo not given in full) | 50 µM |
| C=C(CO)C(=O)OC/C1=C\C[C@@H]2C(=C)C(=O)O[C@H]2C/C(CO)=C/CC1 | 20 µM |
| C=C1C(=O)C=C2[C@H]1C[C@@H]1C(=C)C(=O)O[C@@H]1C[C@@H]2C | 10 µM |
| C=C1C(=O)O[C@H]2C[C@H](C)C3=C(C[C@H]12)[C@@H](C)CC3=O | 20 µM |
| C=C1C(=O)O[C@H]2C/C(CO)=C/CC/C(COC(=O)C(C)CC)=C/C[C@H]12 (stereo not given in full) | 50 µM |
| C=C1C(=O)O[C@H]2C3=C(C(=O)C[C@@H]3C)[C@@H](C)CC[C@@H]12 | 20 µM |
| C=C(C)C(=O)O[C@@H]1C[C@]2(C)CC[C@@](O)(O2)/C(C)=C\[C@H]2OC(=O)C(=C)[C@@H]21 | 50 µM |
| C=C(C)C(=O)O[C@H]1[C@H]2C(=C)C(=O)O[C@@H]2/C=C(\COC(C)=O)CC/C=C(/C=O)[C@@H]1O | 5 µM |
| C=C1C(=O)O[C@@H]2C[C@@H](C)[C@@H]3C=CC(=O)[C@@]3(C)[C@@H](OC(=O)C(C)C)[C@H]12 | 20 µM |
| C=C1C(=O)O[C@@H]2C3O[C@]3(C)CC/C=C(\C)CC[C@@H]12 (stereo not given in full) | 20 µM |
| C=C(C)C(=O)O[C@@H]1C[C@@](C)(O)[C@@H]2C(=O)C=C(C)[C@@H]2[C@H]2OC(=O)C(=C)[C@@H]21 | 20 µM |
| C=C1C(=O)O[C@@H]2C3=C(C(=O)C[C@@H]3C)[C@@H](C)CC[C@@H]12 | 20 µM |
| C=C1C(=O)O[C@@H]2[C@@H]3[C@@](C)(CC[C@@H]12)[C@@H](O)C[C@H]1O[C@@]31C | 200 µM |
| C=C1C(=O)O[C@H]2[C@H]1[C@@H](OC(=O)/C(C)=C/C)C/C(C)=C/C(=O)/C=C(/C)[C@@H]2O | 10 µM |
| C=C1C(=O)O[C@@H]2/C=C(\C)CC/C=C(\C)CC[C@@H]12 | 50 µM |

From ChEMBL document CHEMBL1146082, “Development of a structural model for NF-kappaB inhibition of sesquiterpene lactones using self-organizing neural networks” (J Med Chem, 2006)
